Common to all, as to type: functional, cell-based
The target in experiment [1] is T1, Glucagon-like peptide 1 receptor (Homo sapiens, UniProt P43220). Briefly: Agonist activity at human GLP1 receptor expressed in HEK293 cells assessed as increase in cAMP level after 5 hrs by CRE driven luciferase reporter gene assay.
The target of experiment [2] is T2, Glucagon receptor (Homo sapiens, UniProt P47871). The experiment in a line: Agonist activity at human GCG receptor expressed in HEK293 cells assessed as increase in cAMP level after 5 hrs by CRE driven luciferase reporter gene assay.
T2 sequence (P47871 whole entry): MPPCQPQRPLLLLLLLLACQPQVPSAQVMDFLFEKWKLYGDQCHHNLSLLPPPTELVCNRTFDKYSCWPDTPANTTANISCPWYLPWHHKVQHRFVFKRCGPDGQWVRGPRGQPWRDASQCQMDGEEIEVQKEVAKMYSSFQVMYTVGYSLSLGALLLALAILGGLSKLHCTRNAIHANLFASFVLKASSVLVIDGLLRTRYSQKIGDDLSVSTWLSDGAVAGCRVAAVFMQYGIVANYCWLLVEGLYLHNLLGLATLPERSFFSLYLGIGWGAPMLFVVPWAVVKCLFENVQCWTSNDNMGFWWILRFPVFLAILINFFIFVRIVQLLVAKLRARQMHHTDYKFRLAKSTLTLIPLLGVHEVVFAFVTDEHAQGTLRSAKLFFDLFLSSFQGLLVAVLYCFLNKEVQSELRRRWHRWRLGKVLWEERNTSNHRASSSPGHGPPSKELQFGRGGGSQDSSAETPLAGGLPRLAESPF
In experiment [3] the target is T3, Gastric inhibitory polypeptide receptor (Homo sapiens, UniProt P48546).
T3 sequence (P48546 whole entry): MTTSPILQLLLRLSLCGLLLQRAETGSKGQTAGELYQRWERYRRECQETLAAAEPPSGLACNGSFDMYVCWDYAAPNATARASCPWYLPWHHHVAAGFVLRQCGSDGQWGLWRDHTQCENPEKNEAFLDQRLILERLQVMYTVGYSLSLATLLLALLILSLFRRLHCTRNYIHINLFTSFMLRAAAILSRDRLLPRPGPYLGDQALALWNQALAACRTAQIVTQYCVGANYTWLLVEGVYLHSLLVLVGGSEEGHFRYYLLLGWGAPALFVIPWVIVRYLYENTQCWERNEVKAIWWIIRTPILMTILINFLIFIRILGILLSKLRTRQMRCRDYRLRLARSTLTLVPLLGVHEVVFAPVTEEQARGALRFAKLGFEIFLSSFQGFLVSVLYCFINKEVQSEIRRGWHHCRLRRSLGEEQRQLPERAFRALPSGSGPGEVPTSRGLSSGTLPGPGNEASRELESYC
Briefly: Agonist activity at human GIP receptor expressed in HEK293 cells assessed as increase in cAMP level after 5 hrs by CRE driven luciferase reporter gene assay. (In general: Cyclic AMP is a second messenger, typically raised through Gs and lowered through Gi signalling.)

For experiment [4], the target named is T1, Glucagon-like peptide 1 receptor. Briefly: Agonist activity at human GLP1 receptor expressed in HEK293 cells assessed as increase in cAMP level after 5 hrs by CRE driven luciferase reporter gene assay relative to GLP1. Details: concentration or dose not given beside the values.
Experiment [5] has as its target T2, Glucagon receptor. Briefly: Agonist activity at human GCG receptor expressed in HEK293 cells assessed as increase in cAMP level after 5 hrs by CRE driven luciferase reporter gene assay relative to glucagon.
In experiment [6] the target is T4, Gastric inhibitory polypeptide receptor (Homo sapiens) (UniProt P48546).
T4 sequence (whole entry): T3 sequence (P48546 whole entry)
The experiment in a line: Agonist activity at human GIP receptor expressed in HEK293 cells assessed as increase in cAMP level after 5 hrs by CRE driven luciferase reporter gene assay relative to GIP. On the set-up: concentration or dose not given beside the values.

T1 sequence (P43220 whole entry): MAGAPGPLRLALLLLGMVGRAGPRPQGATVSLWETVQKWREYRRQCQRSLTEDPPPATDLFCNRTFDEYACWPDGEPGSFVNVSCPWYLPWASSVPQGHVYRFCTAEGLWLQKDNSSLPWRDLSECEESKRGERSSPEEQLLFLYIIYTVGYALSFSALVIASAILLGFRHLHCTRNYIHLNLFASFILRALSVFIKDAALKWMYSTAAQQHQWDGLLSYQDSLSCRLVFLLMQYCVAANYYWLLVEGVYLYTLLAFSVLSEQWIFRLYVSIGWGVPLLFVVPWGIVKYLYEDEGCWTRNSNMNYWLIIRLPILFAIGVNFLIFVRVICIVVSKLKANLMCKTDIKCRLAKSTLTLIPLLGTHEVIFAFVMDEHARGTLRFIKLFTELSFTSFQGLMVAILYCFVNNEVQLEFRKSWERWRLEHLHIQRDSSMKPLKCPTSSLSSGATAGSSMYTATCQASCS

Consider `CCCCCCCCCCCCCCCC(=O)N[C@@H](CCC(=O)NCCCC[C@H](NC(=O)[C@H](CC(=O)O)NC(=O)[C@H](CO)NC(=O)[C@@H](NC(=O)[C@H](Cc1ccccc1)NC(=O)[C@@H](NC(=O)CNC(=O)[C@H](CCC(N)=O)NC(=O)[C@@H](CO)NC(=O)[C@@H](N)Cc1cnc[nH]1)[C@@H](C)O)[C@@H](C)O)C(=O)N[C@@H](CO)C(=O)N[C@@H](CCCCN)C(=O)N[C@@H](Cc1ccc(O)cc1)C(=O)N[C@@H](CC(C)C)C(=O)N[C@@H](CC(=O)O)C(=O)N[C@@H](CCC(=O)O)C(=O)N[C@@H](CCC(N)=O)C(=O)N[C@@H](C)C(=O)N[C@@H](C)C(=O)N[C@@H](CCCCN)C(=O)N[C@@H](CCC(=O)O)C(=O)N[C@@H](Cc1ccccc1)C(=O)N[C@H](C(=O)N[C@@H](C)C(=O)N[C@@H](Cc1c[nH]c2ccccc12)C(=O)N[C@@H](CC(C)C)C(=O)N[C@@H](CCSC)C(=O)N[C@@H](CC(N)=O)C(=O)N[C@H](C(N)=O)[C@@H](C)O)[C@@H](C)CC)C(=O)O`, for which the EC50 was 0.039 nM in experiment [1], 0.041 nM on Glucagon receptor [2] and 2.69 nM in experiment [3]. Besides, the Activity in experiment [4] turned out to be 72%; at Glucagon receptor [5], 78%; in experiment [6], 1%.

With `CCCCCCCCCCCCCCCC(=O)N[C@@H](CCC(=O)NCCCC[C@H](NC(=O)[C@H](CC(=O)O)NC(=O)[C@H](CO)NC(=O)[C@@H](NC(=O)[C@H](Cc1ccccc1)NC(=O)[C@@H](NC(=O)CNC(=O)[C@H](CCC(N)=O)NC(=O)CN(C)C(=O)[C@@H](N)Cc1cnc[nH]1)[C@@H](C)O)[C@@H](C)O)C(=O)N[C@@H](CO)C(=O)N[C@@H](CCCCN)C(=O)N[C@@H](Cc1ccc(O)cc1)C(=O)N[C@@H](CC(C)C)C(=O)N[C@@H](CC(=O)O)C(=O)N[C@@H](CCC(=O)O)C(=O)N[C@@H](CCCNC(=N)N)C(=O)N[C@@H](C)C(=O)N[C@@H](C)C(=O)N[C@@H](CCC(N)=O)C(=O)N[C@@H](CC(=O)O)C(=O)N[C@@H](Cc1ccccc1)C(=O)N[C@H](C(=O)N[C@@H](CCC(N)=O)C(=O)N[C@@H](Cc1c[nH]c2ccccc12)C(=O)N[C@@H](CC(C)C)C(=O)N[C@@H](CC(C)C)C(=O)N[C@@H](CC(=O)O)C(=O)N[C@H](C(N)=O)[C@@H](C)O)C(C)C)C(=O)O`, the results for the concentration for a half-maximal effect (EC50) (in experiment [1]; on Glucagon receptor [2]; in experiment [3]) were 0.115 nM, 0.016 nM and 5.83 nM, respectively. For the same molecule, the Activity in experiment [4] came to 24%; at Glucagon receptor [5], 200%; in experiment [6] it was 0%.

Consider `CCCCCCCCCCCCCCCC(=O)N[C@@H](CCC(=O)NCCCC[C@H](NC(=O)[C@H](CC(=O)O)NC(=O)[C@H](CO)NC(=O)[C@@H](NC(=O)[C@H](Cc1ccccc1)NC(=O)[C@@H](NC(=O)CNC(=O)[C@H](CCC(N)=O)NC(=O)C(C)(C)NC(=O)[C@@H](N)Cc1cnc[nH]1)[C@@H](C)O)[C@@H](C)O)C(=O)N[C@@H](CO)C(=O)N[C@@H](CCCCN)C(=O)N[C@@H](Cc1ccc(O)cc1)C(=O)N[C@@H](CC(C)C)C(=O)N[C@@H](CC(=O)O)C(=O)N[C@@H](CCC(=O)O)C(=O)N[C@@H](CCCNC(=N)N)C(=O)N[C@@H](C)C(=O)N[C@@H](C)C(=O)N[C@@H](CCC(N)=O)C(=O)N[C@@H](CC(=O)O)C(=O)N[C@@H](Cc1ccccc1)C(=O)N[C@H](C(=O)N[C@@H](CCC(N)=O)C(=O)N[C@@H](Cc1c[nH]c2ccccc12)C(=O)N[C@@H](CC(C)C)C(=O)N[C@@H](CC(C)C)C(=O)N[C@@H](CC(=O)O)C(=O)N[C@H](C(N)=O)[C@@H](C)O)C(C)C)C(=O)O`, for which the EC50 in experiment [1] was found to be 0.068 nM; at Glucagon receptor [2], 0.005 nM; in experiment [3] it was 2.03 nM. The Activity in experiment [4] was 41%; at Glucagon receptor [5], 640%; in experiment [6] it was 1%.

As for `CC[C@H](C)[C@H](NC(=O)[C@H](Cc1ccccc1)NC(=O)[C@H](CCC(=O)O)NC(=O)[C@@H]1CCCCNC(=O)CC[C@H](NC(=O)[C@H](CC(=O)O)NC(=O)[C@H](CC(C)C)NC(=O)[C@H](Cc2ccc(O)cc2)NC(=O)[C@H](CCCCN)NC(=O)[C@H](CO)NC(=O)[C@H](Cc2ccc(O)cc2)NC(=O)[C@H](CC(=O)O)NC(=O)[C@H](CO)NC(=O)[C@@H](NC(=O)[C@H](Cc2ccccc2)NC(=O)[C@@H](NC(=O)CNC(=O)[C@H](CCC(N)=O)NC(=O)[C@H](CO)NC(=O)[C@@H](N)Cc2cnc[nH]2)[C@@H](C)O)[C@@H](C)O)C(=O)N[C@@H]([C@@H](C)CC)C(=O)N[C@@H](Cc2cnc[nH]2)C(=O)N[C@@H](CCC(N)=O)C(=O)N1)C(=O)N[C@@H](C)C(=O)N[C@@H](Cc1c[nH]c2ccccc12)C(=O)N[C@@H](CC(C)C)C(=O)N[C@@H](CCSC)C(=O)N[C@@H](CC(N)=O)C(=O)N[C@H](C(N)=O)[C@@H](C)O`, the EC50 in experiment [1] is 0.14 nM; on Glucagon receptor [2], 0.15 nM; in experiment [3] it was 5.53 nM. Besides, the Activity in experiment [4] turned out to be 20%; on Glucagon receptor [5], 21%; in experiment [6], 0%.

Consider `CCCCCCCCCCCCCCCC(=O)N[C@@H](CCC(=O)NCCCC[C@H](NC(=O)[C@H](CC(=O)O)NC(=O)[C@H](CO)NC(=O)[C@@H](NC(=O)[C@H](Cc1ccccc1)NC(=O)[C@@H](NC(=O)CNC(=O)[C@H](CCC(N)=O)NC(=O)C(C)(C)NC(=O)[C@@H](N)Cc1cnc[nH]1)[C@@H](C)O)[C@@H](C)O)C(=O)N[C@@H](CO)C(=O)N[C@@H](CCCCN)C(=O)N[C@@H](Cc1ccc(O)cc1)C(=O)N[C@@H](CC(C)C)C(=O)N[C@@H](CC(=O)O)C(=O)N[C@@H](CCC(=O)O)C(=O)N[C@@H](CCC(N)=O)C(=O)N[C@@H](C)C(=O)N[C@@H](C)C(=O)N[C@@H](CCCCN)C(=O)N[C@@H](CCC(=O)O)C(=O)N[C@@H](Cc1ccccc1)C(=O)N[C@H](C(=O)N[C@@H](C)C(=O)N[C@@H](Cc1c[nH]c2ccccc12)C(=O)N[C@@H](CC(C)C)C(=O)N[C@@H](CC(C)C)C(=O)N[C@@H](CC(=O)O)C(=O)N[C@H](C(N)=O)[C@@H](C)O)[C@@H](C)CC)C(=O)O`, for which the EC50 in experiment [1] is 0.003 nM; on Glucagon receptor [2] it was 0.003 nM; in experiment [3], 3.54 nM. The Activity was 933% in experiment [4], 1070% at Glucagon receptor [5] and 1% in experiment [6].

For the molecule `CCCCCCCCCCCCCCCC(=O)N[C@@H](CCC(=O)NCCCC[C@H](NC(=O)[C@H](CC(=O)O)NC(=O)[C@H](CO)NC(=O)[C@@H](NC(=O)[C@H](Cc1ccccc1)NC(=O)[C@@H](NC(=O)CNC(=O)[C@H](CCC(N)=O)NC(=O)CNC(=O)[C@@H](N)Cc1cnc[nH]1)[C@@H](C)O)[C@@H](C)O)C(=O)N[C@@H](CO)C(=O)N[C@@H](CCCCN)C(=O)N[C@@H](Cc1ccc(O)cc1)C(=O)N[C@@H](CC(C)C)C(=O)N[C@@H](CC(=O)O)C(=O)N[C@@H](CCC(=O)O)C(=O)N[C@@H](CCCNC(=N)N)C(=O)N[C@@H](C)C(=O)N[C@@H](C)C(=O)N[C@@H](CCC(N)=O)C(=O)N[C@@H](CC(=O)O)C(=O)N[C@@H](Cc1ccccc1)C(=O)N[C@H](C(=O)N[C@@H](CCC(N)=O)C(=O)N[C@@H](Cc1c[nH]c2ccccc12)C(=O)N[C@@H](CC(C)C)C(=O)N[C@@H](CC(C)C)C(=O)N[C@@H](CC(=O)O)C(=O)N[C@H](C(N)=O)[C@@H](C)O)C(C)C)C(=O)O`, the EC50 in experiment [1] is 0.093 nM; at Glucagon receptor [2], 0.005 nM; in experiment [3] it was 1.1 nM. The Activity in experiment [4] was found to be 30%; at Glucagon receptor [5] it was 640%; in experiment [6] it was 2%.

`CCCCCCCCCCCCCCCC(=O)N[C@@H](CCC(=O)NCCCC[C@H](NC(=O)[C@H](CC(=O)O)NC(=O)[C@H](CO)NC(=O)[C@@H](NC(=O)[C@H](Cc1ccccc1)NC(=O)[C@@H](NC(=O)CNC(=O)[C@H](CCC(N)=O)NC(=O)C(C)(C)NC(=O)[C@@H](N)Cc1cnc[nH]1)[C@@H](C)O)[C@@H](C)O)C(=O)N[C@@H](CO)C(=O)N[C@@H](CCCCN)C(=O)N[C@@H](Cc1ccc(O)cc1)C(=O)N[C@@H](CC(C)C)C(=O)N[C@@H](CC(=O)O)C(=O)NC(C)(C)C(=O)N[C@@H](CCCNC(=N)N)C(=O)N[C@@H](C)C(=O)N[C@@H](C)C(=O)N[C@@H](CCC(N)=O)C(=O)N[C@@H](CC(=O)O)C(=O)N[C@@H](Cc1ccccc1)C(=O)N[C@H](C(=O)N[C@@H](CCC(N)=O)C(=O)N[C@@H](Cc1c[nH]c2ccccc12)C(=O)N[C@@H](CC(C)C)C(=O)N[C@@H](CCSC)C(=O)N[C@@H](CC(=O)O)C(=O)N[C@H](C(N)=O)[C@@H](C)O)C(C)C)C(=O)O`: the EC50 in experiment [1] was 0.015 nM; at Glucagon receptor [2] it was 0.028 nM; in experiment [3] it was 2.19 nM. Further, the Activity in experiment [4] came to 187%; on Glucagon receptor [5], 114%; in experiment [6], 1%.

Usually EC50 stands for the midpoint of the concentration-response curve.

Source of the values: ChEMBL document CHEMBL4219047, “Optimization of peptide-based polyagonists for treatment of diabetes and obesity” (Bioorg Med Chem, 2018).
